Molecular target: sarco/endoplasmic reticulum calcium ATPase (SERCA) (Oryctolagus cuniculus, UniProt P04191)
Test: SERCA-catalyzed ATP hydrolysis, coupled PK/LDH NADH oxidation assay

Chain of sarco/endoplasmic reticulum calcium ATPase (SERCA) (P04191 1-994 isoform P04191-2): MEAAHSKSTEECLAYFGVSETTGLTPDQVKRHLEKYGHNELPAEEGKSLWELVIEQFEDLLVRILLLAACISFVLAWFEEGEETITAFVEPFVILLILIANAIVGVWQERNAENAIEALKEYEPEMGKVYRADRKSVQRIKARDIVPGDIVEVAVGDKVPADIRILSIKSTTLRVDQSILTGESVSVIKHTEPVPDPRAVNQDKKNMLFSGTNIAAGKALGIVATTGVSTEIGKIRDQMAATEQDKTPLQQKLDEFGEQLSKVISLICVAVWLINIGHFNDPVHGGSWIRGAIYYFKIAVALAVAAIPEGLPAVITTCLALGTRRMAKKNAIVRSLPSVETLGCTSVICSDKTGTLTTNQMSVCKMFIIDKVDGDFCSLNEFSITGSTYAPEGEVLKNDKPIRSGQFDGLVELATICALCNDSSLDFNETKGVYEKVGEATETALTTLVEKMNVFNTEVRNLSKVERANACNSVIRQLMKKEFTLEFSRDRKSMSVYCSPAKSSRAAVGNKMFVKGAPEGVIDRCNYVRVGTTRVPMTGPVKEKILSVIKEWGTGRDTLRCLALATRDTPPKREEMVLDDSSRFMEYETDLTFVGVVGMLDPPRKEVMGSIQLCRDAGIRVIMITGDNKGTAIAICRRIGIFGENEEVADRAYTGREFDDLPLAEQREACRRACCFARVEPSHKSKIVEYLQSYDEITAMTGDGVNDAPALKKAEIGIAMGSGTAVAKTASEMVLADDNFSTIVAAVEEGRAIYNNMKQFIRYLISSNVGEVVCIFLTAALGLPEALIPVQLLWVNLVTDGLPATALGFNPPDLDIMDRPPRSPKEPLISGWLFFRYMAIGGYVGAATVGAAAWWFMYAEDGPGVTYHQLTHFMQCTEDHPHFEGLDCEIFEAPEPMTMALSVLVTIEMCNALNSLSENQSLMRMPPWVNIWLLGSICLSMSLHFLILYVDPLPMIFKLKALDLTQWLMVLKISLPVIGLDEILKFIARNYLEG

## CC(C)(C)OC(=O)NCCCC(=O)Oc1cc(C(C)(C)C)c(OC(=O)CCCNC(=O)OC(C)(C)C)cc1C(C)(C)C [8a]
  SERCA inhibition (activity in words): inactive

Source: PMC2752035 (Bioorganic & medicinal chemistry, 2009)
